Read-outs that look alike come from different tables or passages of the source.
What was measured:
5-HT2B (h) = 5-HT2B (h) (Homo sapiens, UniProt P41595); test: Radioligand binding, agonist radioligand [125I](±)DOI
5-HTB = 5-HTB (Rattus norvegicus, UniProt P28564); test: Radioligand binding, antagonist radioligand [125I]CYP
[1] = In vitro metabolism, intrinsic clearance in human liver microsomes; type: in vitro ADME; details: for Clint: human liver microsomes intrinsic clearance; for Clint / half-life / % Compound Remaining, 1st / % Compound Remaining, 2nd / % Compound Remaining, Mean: 1.0×10^−7 M; for microsomal CLint / half-life: human, human liver microsomes
[2] = In vitro protein binding in human plasma; type: in vitro ADME; details: 1.0×10^−5 M; for % Protein bound, 1st / % Protein bound, 2nd / % Protein bound, Mean: human plasma; for recovery: human, plasma, protein binding assay
[3] = test system: adult male Brown Norway rats; test: Ovalbumin allergic asthma model, whole body plethysmography (ΔPenh) after methacholine challenge; type: in vivo; details: for Prevention of AHR (ΔPenh/PenH) in response to OVA: rats
Description: A modification of the ovalbumin model of allergic asthma and whole body plethysmography protocol as described in Nau et al. (Am. J. Physiol. Lung Cell Mol. Physiol. 2015, 308(2): L191-L198; incorporated herein by reference) was used to determine ΔPenh, a measure of airways hyperresponsiveness (AHR), in response to methacholine challenge in adult male Brown Norway rats. Results, shown in FIGS. 2A-2G, represent PenH change measured in the ovalbumin allergic asthma assay in rats, with the exception of FIG. 2C, which was measured in mice, for nebulized inhaled drug. Statistics were performed using 2-way ANOVA with Tukey post hoc test for multiple comparisons.
Allergic asthma is defined as a chronic inflammatory disorder of the airways. This disease is characterized by airway inflammation, persistent airways AHR and intermittent, reversible airways obstruction.
Area under the curve of PenH values (PenH-AUC) in response to incremental doses of metacholine were calculated for each testing groups, naïve, OVA treated, and OVA+DRUG treated animals. A reduction in PenH-AUC values of more than 75% of the control values (OVA alone) was annotated as a strong efficacy. […] Additional to this information are provided the relative to R-DOI EC50 values (ratio) of tested compounds in 5-HT2AR heterologous cell-based calcium transient assay. […] FIG. 3 illustrates the non-correlative nature of the therapeutic efficacy of the phenylethylamines class of compounds against inflammatory-mediated allergen-induced AHR and the reported evidences of the dose necessary for psychoactive disturbances experienced with these compounds in humans or the potency and strength of these compounds to the 5-HT2AR in calcium transients assays.
Inhibition of ΔPenh as a function of 2C-iBu concentration was studied by nebulization nose-only administration of 2C-iBu to male adult Brown Norway rats as described above. Area under the curve for each treatment group at a given dose of 2C-iBu for ΔPenh is plotted on the Y-axis versus concentration of 2C-iBu on the X-axis.

5-HT2C (h) = biological target: T1, 5-HT2C (h) (Homo sapiens, UniProt P28335); test: Radioligand binding, agonist radioligand [125I](±)DOI
T1 sequence (P28335 33-458): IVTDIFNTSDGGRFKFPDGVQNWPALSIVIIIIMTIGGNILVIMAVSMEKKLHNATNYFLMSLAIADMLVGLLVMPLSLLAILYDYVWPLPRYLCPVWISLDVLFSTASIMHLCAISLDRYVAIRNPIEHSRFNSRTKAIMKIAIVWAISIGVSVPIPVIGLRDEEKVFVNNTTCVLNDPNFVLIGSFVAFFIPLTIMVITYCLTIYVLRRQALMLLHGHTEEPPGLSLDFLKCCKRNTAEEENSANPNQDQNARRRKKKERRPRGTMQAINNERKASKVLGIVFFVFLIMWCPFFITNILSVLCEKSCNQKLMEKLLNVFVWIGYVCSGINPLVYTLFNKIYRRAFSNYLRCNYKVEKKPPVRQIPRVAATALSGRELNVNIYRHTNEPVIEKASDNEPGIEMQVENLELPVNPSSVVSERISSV

[4] = log D at physiological pH; type: physicochemical; details: pH 7.4
Description: This differential in the physico-chemical properties could be one of the drivers in the observed increased plasma protein binding capability of 2Ci-Bu in comparison to R-DOI and the moderate changes in the Caco-2 A-B/B-A permeability profiles.

[5] = In vitro absorption, Caco-2 permeability; type: in vitro ADME; details: human, Caco-2, pH 6.5, Caco-2, pH 6.5/7.4, 1.0×10^−5 M
[6] = read-out: Half-life (minutes), 1st
[7] = read-out: Half-life (minutes), 2nd
[8] = read-out: Half-life (minutes), Mean
[9] = read-out: A-B Permeability, 1st
[10] = read-out: A-B Permeability, 2nd
[11] = read-out: A-B Permeability, Mean
[12] = read-out: B-A Permeability, 1st
[13] = read-out: B-A Permeability, 2nd
[14] = read-out: B-A Permeability, Mean

Sequence of 5-HTB (P28564 whole entry): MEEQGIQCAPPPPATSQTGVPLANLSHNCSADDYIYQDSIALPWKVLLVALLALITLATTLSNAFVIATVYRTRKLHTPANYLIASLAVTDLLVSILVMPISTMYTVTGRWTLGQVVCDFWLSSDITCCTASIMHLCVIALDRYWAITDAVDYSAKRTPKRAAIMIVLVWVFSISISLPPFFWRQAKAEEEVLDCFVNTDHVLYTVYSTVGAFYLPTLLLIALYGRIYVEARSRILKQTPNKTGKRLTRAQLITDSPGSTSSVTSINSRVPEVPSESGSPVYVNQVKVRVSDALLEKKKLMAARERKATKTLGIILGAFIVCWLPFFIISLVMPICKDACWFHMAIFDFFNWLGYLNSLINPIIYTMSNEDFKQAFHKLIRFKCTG
Sequence of 5-HT2B (h) (P41595 whole entry): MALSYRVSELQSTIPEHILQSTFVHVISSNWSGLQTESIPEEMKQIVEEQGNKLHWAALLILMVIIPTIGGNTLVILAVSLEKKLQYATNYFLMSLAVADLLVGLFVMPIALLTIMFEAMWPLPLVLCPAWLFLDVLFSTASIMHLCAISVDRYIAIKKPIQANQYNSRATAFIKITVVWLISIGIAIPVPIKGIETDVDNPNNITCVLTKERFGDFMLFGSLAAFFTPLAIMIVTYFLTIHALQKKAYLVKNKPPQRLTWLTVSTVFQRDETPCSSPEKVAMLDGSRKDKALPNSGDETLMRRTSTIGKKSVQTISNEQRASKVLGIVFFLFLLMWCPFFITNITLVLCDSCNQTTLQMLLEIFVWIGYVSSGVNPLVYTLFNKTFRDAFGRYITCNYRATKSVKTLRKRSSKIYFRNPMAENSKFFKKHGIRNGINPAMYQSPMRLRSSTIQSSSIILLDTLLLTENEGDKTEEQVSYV

COc1cc(C[C@@H](C)N)c(OC)cc1I [R-DOI] gave a Ki (5-HT2B (h)) of 2.51 nM, a Ki (5-HTB) of 2510 nM and a Clint [1] of under 115.5. The microsomal CLint [1] was under 116 µL/min/mg, the half-life [1, 6] was 139 min and the half-life [1, 7] was 188 min. The half-life [1, 8] was over 60 min, the “% Compound Remaining, 1st” value ([1]; incubation 0 minutes) was 100% and the “% Compound Remaining, 2nd” value ([1]; incubation 0 minutes) was 100%. The “% Compound Remaining, Mean” value ([1]; incubation 0 minutes) was 100%, the “% Compound Remaining, 1st” value ([1]; incubation 15 minutes) was 90.0% and the “% Compound Remaining, 2nd” value ([1]; incubation 15 minutes) was 101.6%. The “% Compound Remaining, Mean” value ([1]; incubation 15 minutes) was 96%, the “% Compound Remaining, 1st” value ([1]; incubation 30 minutes) was 79.6% and the “% Compound Remaining, 2nd” value ([1]; incubation 30 minutes) was 105.3%. For the same molecule, the “% Compound Remaining, Mean” value ([1]; incubation 30 minutes) was 92%, the “% Compound Remaining, 1st” value ([1]; incubation 45 minutes) was 77.0% and the “% Compound Remaining, 2nd” value ([1]; incubation 45 minutes) was 82.1%. The “% Compound Remaining, Mean” value ([1]; incubation 45 minutes) was 80%, the “% Compound Remaining, 1st” value ([1]; incubation 60 minutes) was 74.3% and the “% Compound Remaining, 2nd” value ([1]; incubation 60 minutes) was “{91.4} %”. For the same molecule, the “% Compound Remaining, Mean” value ([1]; incubation 60 minutes) was 74%, the “% Protein bound, 1st” value [2] was 47.5% and the “% Protein bound, 2nd” value [2] was 49.6%. For the same molecule, the “% Protein bound, Mean” value [2] was 49%, the recovery ([2]; read-out: % Recovery, 1st) was 126% and the recovery ([2]; read-out: % Recovery, 2nd) was 126%. The recovery ([2]; read-out: % Recovery, Mean) was 126%, the “Prevention of AHR (ΔPenh/PenH) in response to OVA” value ([3]; 1.0 mg/kg, nebulized inhaled drug) was “full efficacy at preventing AHR” and the Ki (5-HT2C (h)) was 0.631 nM. It also gave a logD [4] of 1.04, a recovery ([5]; read-out: % Recovery A-B, 1st) of 72% and a recovery ([5]; read-out: % Recovery A-B, 2nd) of 72%. It also gave a recovery ([5]; read-out: % Recovery A-B, Mean) of 72%, a recovery ([5]; read-out: % Recovery B-A, 1st) of 87% and a recovery ([5]; read-out: % Recovery B-A, 2nd) of 88%. The recovery ([5]; read-out: % Recovery B-A, Mean) was 87%, the Papp A→B [5, 9] was 23.7 ×10⁻⁶ cm/s and the Papp A→B [5, 10] was 23.2 ×10⁻⁶ cm/s. For the same molecule, the Papp A→B [5, 11] was 23.4 ×10⁻⁶ cm/s, the Papp B→A [5, 12] was 19.1 ×10⁻⁶ cm/s and the Papp B→A [5, 13] was 19.3 ×10⁻⁶ cm/s. It also gave a Papp B→A [5, 14] of 19.2 ×10⁻⁶ cm/s.

For COc1cc(CC(C)C)c(OC)cc1CCN [2C-iBu, 2,5-dimethoxy-4-isobutylphenethylamine], the Ki (5-HT2B (h)) was 15.8 nM, the Ki (5-HTB) was 50.1 nM and the Clint [1] was under 115.5. For the same molecule, the microsomal CLint [1] was under 116 µL/min/mg, the half-life [1, 6] was over 60 min and the half-life [1, 7] was 1020 min. The half-life [1, 8] was over 60 min, the “% Compound Remaining, 1st” value ([1]; incubation 0 minutes) was 100% and the “% Compound Remaining, 2nd” value ([1]; incubation 0 minutes) was 100%. For the same molecule, the “% Compound Remaining, Mean” value ([1]; incubation 0 minutes) was 100%, the “% Compound Remaining, 1st” value ([1]; incubation 15 minutes) was 91.0% and the “% Compound Remaining, 2nd” value ([1]; incubation 15 minutes) was “{126.7} %”. For the same molecule, the “% Compound Remaining, Mean” value ([1]; incubation 15 minutes) was 91%, the “% Compound Remaining, 1st” value ([1]; incubation 30 minutes) was 113.6% and the “% Compound Remaining, 2nd” value ([1]; incubation 30 minutes) was 114.2%. For the same molecule, the “% Compound Remaining, Mean” value ([1]; incubation 30 minutes) was 114%, the “% Compound Remaining, 1st” value ([1]; incubation 45 minutes) was 105.3% and the “% Compound Remaining, 2nd” value ([1]; incubation 45 minutes) was 106.5%. The “% Compound Remaining, Mean” value ([1]; incubation 45 minutes) was 106%, the “% Compound Remaining, 1st” value ([1]; incubation 60 minutes) was 94.1% and the “% Compound Remaining, 2nd” value ([1]; incubation 60 minutes) was 94.2%. For the same molecule, the “% Compound Remaining, Mean” value ([1]; incubation 60 minutes) was 94%, the “% Protein bound, 1st” value [2] was 73.7% and the “% Protein bound, 2nd” value [2] was 74.5%. The “% Protein bound, Mean” value [2] was 74%, the recovery ([2]; read-out: % Recovery, 1st) was 107% and the recovery ([2]; read-out: % Recovery, 2nd) was 105%. The recovery ([2]; read-out: % Recovery, Mean) was 106%, the ED50 ([3]; Rattus norvegicus, nebulization nose-only administration, rats (FIG. 4), read-out: ED50, inhibition of ΔPenh (AUC)) was 2.7 µg/kg and the “Prevention of AHR (ΔPenh/PenH) in response to OVA” value ([3]; dose not printed (FIG. 2G)) was “did not result in a decrease in efficacy compared to (R)-DOI”. It also gave a Ki (5-HT2C (h)) of 0.251 nM, a logD [4] of 1.64 and a recovery ([5]; read-out: % Recovery A-B, 1st) of 45%. For the same molecule, the recovery ([5]; read-out: % Recovery A-B, 2nd) was 48%, the recovery ([5]; read-out: % Recovery A-B, Mean) was 46% and the recovery ([5]; read-out: % Recovery B-A, 1st) was 70%. The recovery ([5]; read-out: % Recovery B-A, 2nd) was 72%, the recovery ([5]; read-out: % Recovery B-A, Mean) was 71% and the Papp A→B [5, 9] was 10.9 ×10⁻⁶ cm/s. For the same molecule, the Papp A→B [5, 10] was 10.6 ×10⁻⁶ cm/s, the Papp A→B [5, 11] was 10.7 ×10⁻⁶ cm/s and the Papp B→A [5, 12] was 7.87 ×10⁻⁶ cm/s. The Papp B→A [5, 13] was 7.92 ×10⁻⁶ cm/s and the Papp B→A [5, 14] was 7.9 ×10⁻⁶ cm/s.

Source: patent US12398093B2, “Compounds and methods for treating inflammatory disorders” (Board of Supervisors of Louisiana State University and …, priority 2019, dated 2025)
